Test results: US10710978B2, “STK4 inhibitors for treatment of hematologic malignancies” (Dana-Farber Cancer Institute, Inc., priority 2015, dated 2020)
Where two headings read alike, the source gives them in different places.

Tests used:
Experiment in all cases: KiNativ assay
Format in all cases: binding
[1] = test system: ABL, ARG; conditions: H929 live cell
Procedure: (§1) Biochemical IC50s of the compounds of the present disclosure against various kinases were measured in a KiNativ assay. Compounds were screened in duplicate at 10 μM in H929 live cell. IC50 was measured via Mass spectroscopy (MS).

[2] = biological target: AKT1 (Homo sapiens (Human), UniProt P31749); conditions: H929 live cell
Procedure: as §1

[3] = biological target: BARK1 (Homo sapiens (Human), UniProt P25098); conditions: H929 live cell
Procedure: as §1

[4] = biological target: CDK7 (Homo sapiens (Human), UniProt P50613); conditions: H929 live cell
Procedure: as §1

[5] = biological target: CSK (Homo sapiens (Human), UniProt P41240); conditions: H929 live cell
Procedure: as §1

[6] = biological target: CaMK1d (Homo sapiens (Human), UniProt Q8IU85); conditions: H929 live cell
Procedure: as §1

[7] = test system: CaMK2a, CaMK2b, CaMK2d, CaMK2g; conditions: H929 live cell
Procedure: as §1

[8] = test system: FYN, SRC, YES; conditions: H929 live cell
Procedure: as §1

[9] = biological target: GCK (Homo sapiens (Human), UniProt Q12851); conditions: H929 live cell
Procedure: as §1

[10] = biological target: IRAK1 (Homo sapiens (Human), UniProt P51617); conditions: H929 live cell
Procedure: as §1

[11] = biological target: JAK1 domain1 (Homo sapiens (Human), UniProt P23458); conditions: H929 live cell
Procedure: as §1

[12] = biological target: KHS1 (Homo sapiens (Human), UniProt Q9Y4K4); conditions: H929 live cell
Procedure: as §1

[13] = test system: KSR1, KSR2; conditions: H929 live cell
Procedure: as §1

[14] = biological target: MAP2K6 (Homo sapiens (Human), UniProt P52564); conditions: H929 live cell
Procedure: as §1

[15] = biological target: MAP3K1 (Homo sapiens (Human), UniProt Q13233); conditions: H929 live cell
Procedure: as §1

[16] = biological target: MAP3K4 (Homo sapiens (Human), UniProt Q9Y6R4); conditions: H929 live cell
Procedure: as §1

[17] = biological target: MAP3K5 (Homo sapiens (Human), UniProt Q99683); conditions: H929 live cell
Procedure: as §1

[18] = test system: MARK2, MARK3; conditions: H929 live cell
Procedure: as §1

[19] = biological target: MSK1 domain1 (Homo sapiens (Human), UniProt O75582); conditions: H929 live cell
Procedure: as §1

[20] = biological target: MSK2 domain1 (Homo sapiens (Human), UniProt O75676); conditions: H929 live cell
Procedure: as §1

[21] = biological target: NEK3 (Homo sapiens (Human), UniProt P51956); conditions: H929 live cell
Procedure: as §1

[22] = biological target: NuaK1 (Homo sapiens (Human), UniProt O60285); conditions: H929 live cell
Procedure: as §1

[23] = biological target: PAN3 (Homo sapiens (Human), UniProt Q58A45); conditions: H929 live cell
Procedure: as §1

[24] = biological target: PIK3C3 (Homo sapiens (Human), UniProt Q8NEB9); conditions: H929 live cell
Procedure: as §1

[25] = biological target: PIK3CG (Homo sapiens (Human), UniProt P48736); conditions: H929 live cell
Procedure: as §1

[26] = biological target: PKCi (Homo sapiens (Human), UniProt P41743); conditions: H929 live cell
Procedure: as §1

[27] = biological target: PRP4 (Homo sapiens (Human), UniProt Q13523); conditions: H929 live cell
Procedure: as §1

[28] = biological target: RSK1 domain2 (Homo sapiens (Human), UniProt Q15418); conditions: H929 live cell
Procedure: as §1

[29] = biological target: SRPK1 (Homo sapiens (Human), UniProt Q96SB4); conditions: H929 live cell
Procedure: as §1

[30] = biological target: SRPK2 (Homo sapiens (Human), UniProt P78362); conditions: H929 live cell
Procedure: as §1

[31] = biological target: TAO2 (Homo sapiens (Human), UniProt Q9UL54); conditions: H929 live cell
Procedure: as §1

[32] = biological target: p38a (Homo sapiens (Human), UniProt Q16539); conditions: H929 live cell, range class, read-out: % inhibition
Method in brief: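 H929 live-cell screen at 10 μM, run in duplicate. Kinase occupancy was assessed via the KiNativ platform, with IC50 determined by mass spectrometry.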

[33] = biological target: p70S6Kb (Homo sapiens (Human), UniProt Q9UBS0); conditions: H929 live cell
Procedure: as §1

[34] = range class, read-out: % inhibition

NuaK1, sequence (O60285 whole entry): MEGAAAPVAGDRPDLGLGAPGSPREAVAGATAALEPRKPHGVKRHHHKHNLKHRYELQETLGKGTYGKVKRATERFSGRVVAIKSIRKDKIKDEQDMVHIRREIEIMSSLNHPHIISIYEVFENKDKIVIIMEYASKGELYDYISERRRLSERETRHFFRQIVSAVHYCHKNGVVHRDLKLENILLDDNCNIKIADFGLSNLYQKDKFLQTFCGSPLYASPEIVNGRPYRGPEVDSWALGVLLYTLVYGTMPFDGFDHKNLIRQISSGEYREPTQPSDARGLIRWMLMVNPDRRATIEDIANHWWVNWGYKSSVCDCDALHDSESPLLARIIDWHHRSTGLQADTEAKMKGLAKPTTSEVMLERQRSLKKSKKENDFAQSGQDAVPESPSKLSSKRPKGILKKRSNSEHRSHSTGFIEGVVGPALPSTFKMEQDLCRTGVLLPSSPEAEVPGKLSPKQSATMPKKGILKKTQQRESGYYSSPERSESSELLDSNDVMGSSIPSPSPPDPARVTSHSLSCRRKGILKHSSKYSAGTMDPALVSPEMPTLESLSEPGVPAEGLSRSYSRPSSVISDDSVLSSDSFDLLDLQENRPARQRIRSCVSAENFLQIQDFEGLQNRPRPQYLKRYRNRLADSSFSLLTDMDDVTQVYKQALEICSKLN
PAN3, sequence (Q58A45 whole entry): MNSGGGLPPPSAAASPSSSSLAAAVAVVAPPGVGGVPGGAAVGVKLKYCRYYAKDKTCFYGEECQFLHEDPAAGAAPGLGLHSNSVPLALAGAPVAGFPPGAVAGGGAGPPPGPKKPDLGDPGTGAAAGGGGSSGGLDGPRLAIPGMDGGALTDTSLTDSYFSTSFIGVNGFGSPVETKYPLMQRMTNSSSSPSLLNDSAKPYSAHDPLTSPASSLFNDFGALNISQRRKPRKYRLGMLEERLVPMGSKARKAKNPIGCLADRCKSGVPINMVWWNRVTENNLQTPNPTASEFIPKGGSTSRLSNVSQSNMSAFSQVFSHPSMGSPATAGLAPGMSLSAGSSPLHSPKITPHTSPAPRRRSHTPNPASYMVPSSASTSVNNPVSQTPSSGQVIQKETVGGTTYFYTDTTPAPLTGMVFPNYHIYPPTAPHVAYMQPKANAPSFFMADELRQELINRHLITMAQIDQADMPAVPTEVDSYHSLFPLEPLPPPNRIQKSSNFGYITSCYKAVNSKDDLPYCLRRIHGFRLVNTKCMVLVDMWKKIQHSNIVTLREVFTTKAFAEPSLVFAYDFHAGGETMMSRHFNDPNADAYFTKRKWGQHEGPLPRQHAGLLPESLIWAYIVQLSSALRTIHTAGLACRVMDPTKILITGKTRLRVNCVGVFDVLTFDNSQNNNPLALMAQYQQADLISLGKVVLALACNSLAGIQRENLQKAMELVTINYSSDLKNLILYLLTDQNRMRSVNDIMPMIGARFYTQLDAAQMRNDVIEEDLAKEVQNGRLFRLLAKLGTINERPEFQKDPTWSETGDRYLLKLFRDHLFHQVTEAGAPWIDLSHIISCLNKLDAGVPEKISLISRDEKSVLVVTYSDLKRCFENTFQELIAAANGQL
MSK1 domain1, sequence (O75582 whole entry, the tested form may be a part): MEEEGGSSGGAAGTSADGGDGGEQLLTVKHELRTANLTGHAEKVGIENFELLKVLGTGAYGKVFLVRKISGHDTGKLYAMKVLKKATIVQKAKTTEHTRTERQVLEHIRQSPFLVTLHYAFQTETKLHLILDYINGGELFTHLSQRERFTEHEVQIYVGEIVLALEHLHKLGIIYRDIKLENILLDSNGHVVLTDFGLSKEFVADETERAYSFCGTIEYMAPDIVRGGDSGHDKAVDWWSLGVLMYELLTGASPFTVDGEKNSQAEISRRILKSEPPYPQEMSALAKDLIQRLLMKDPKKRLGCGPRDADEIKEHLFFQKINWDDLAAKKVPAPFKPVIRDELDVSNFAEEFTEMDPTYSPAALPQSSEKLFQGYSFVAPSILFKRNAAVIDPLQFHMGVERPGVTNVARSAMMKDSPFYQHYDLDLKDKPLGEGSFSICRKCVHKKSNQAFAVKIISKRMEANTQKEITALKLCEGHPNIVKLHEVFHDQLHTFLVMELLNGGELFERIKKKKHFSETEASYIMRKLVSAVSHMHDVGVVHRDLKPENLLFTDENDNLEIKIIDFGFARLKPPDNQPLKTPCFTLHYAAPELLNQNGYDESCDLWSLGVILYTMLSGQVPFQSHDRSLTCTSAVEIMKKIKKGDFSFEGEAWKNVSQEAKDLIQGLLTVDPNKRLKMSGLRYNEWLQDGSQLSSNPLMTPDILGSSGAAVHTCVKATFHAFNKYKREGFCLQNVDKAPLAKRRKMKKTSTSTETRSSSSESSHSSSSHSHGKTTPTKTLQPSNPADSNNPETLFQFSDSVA
CSK, sequence (P41240 whole entry): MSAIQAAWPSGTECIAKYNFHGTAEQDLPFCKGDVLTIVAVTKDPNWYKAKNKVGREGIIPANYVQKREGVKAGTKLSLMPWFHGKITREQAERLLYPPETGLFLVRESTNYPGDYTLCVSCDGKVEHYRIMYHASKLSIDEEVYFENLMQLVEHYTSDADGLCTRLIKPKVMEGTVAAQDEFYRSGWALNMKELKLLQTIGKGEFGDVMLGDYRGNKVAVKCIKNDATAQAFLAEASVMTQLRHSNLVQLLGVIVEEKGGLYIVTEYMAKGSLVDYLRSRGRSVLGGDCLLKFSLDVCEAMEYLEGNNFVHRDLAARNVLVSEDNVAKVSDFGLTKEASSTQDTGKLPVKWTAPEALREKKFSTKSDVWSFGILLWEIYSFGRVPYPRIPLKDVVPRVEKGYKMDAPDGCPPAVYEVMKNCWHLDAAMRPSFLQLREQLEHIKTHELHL
MAP3K5, sequence (Q99683 whole entry): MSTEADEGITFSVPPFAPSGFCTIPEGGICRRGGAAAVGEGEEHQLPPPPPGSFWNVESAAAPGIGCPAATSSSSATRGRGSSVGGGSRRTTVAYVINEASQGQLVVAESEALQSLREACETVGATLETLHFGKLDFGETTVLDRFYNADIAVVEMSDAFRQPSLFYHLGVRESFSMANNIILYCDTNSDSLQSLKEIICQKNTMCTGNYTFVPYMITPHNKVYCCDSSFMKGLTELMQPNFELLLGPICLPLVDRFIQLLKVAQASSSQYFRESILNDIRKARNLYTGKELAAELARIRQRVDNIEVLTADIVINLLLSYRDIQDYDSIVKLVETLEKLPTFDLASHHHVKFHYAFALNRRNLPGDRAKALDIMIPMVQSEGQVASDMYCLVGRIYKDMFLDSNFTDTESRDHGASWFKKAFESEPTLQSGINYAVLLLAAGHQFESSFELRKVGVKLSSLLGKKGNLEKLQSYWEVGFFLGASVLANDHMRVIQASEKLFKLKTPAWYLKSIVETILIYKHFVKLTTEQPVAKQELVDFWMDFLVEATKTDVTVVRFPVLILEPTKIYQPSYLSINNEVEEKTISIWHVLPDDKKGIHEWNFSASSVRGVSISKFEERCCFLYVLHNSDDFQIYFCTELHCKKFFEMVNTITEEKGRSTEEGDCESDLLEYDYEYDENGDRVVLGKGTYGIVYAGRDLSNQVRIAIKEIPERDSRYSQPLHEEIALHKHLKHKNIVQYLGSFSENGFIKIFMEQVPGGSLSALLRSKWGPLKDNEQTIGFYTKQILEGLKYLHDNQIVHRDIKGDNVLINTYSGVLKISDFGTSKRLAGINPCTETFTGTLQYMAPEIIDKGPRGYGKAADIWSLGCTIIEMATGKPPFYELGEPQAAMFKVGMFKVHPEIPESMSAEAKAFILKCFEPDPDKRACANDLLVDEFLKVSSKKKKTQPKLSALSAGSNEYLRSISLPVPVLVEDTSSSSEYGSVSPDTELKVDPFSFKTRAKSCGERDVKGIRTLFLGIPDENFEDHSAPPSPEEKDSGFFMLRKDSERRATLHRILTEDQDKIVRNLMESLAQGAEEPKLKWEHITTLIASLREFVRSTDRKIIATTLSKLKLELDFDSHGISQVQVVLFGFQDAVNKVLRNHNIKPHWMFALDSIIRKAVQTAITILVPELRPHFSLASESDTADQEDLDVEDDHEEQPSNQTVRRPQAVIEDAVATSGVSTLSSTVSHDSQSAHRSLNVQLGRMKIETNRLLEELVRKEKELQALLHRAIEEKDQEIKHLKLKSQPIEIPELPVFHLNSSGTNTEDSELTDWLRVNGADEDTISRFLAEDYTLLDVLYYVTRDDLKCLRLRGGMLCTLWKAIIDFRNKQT
GCK, sequence (Q12851 whole entry): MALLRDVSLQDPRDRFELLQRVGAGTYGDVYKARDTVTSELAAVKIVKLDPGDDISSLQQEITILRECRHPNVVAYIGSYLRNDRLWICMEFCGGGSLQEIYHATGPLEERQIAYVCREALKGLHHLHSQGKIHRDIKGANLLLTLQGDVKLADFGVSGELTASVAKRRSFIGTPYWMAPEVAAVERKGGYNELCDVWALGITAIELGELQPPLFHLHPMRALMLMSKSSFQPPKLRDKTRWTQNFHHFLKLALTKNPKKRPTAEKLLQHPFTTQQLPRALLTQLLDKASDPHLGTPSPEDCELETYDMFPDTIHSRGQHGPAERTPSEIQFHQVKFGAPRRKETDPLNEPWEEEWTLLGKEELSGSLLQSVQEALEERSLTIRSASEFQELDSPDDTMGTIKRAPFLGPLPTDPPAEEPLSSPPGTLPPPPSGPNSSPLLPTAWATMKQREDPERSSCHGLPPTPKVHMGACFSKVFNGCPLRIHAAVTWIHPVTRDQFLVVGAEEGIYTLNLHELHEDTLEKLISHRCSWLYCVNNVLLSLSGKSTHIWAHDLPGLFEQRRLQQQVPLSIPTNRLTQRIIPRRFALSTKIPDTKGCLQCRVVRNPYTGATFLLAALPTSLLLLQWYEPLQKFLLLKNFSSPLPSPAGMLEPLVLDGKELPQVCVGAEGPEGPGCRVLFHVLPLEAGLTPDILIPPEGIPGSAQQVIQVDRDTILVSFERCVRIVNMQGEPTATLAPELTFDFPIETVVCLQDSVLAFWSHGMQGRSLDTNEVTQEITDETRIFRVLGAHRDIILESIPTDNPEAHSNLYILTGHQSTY

## COc1cc(NS(=O)(=O)C2CC2)ccc1-c1cnc(N)c(-c2ccc3c(c2)CCNC3=O)c1 [Compound I-50, N-(4-(6-amino-5-(1-oxo-1,2,3,4-tetrahydroisoquinolin-6-yl)pyridin-3-yl)-3-methoxyphenyl) cyclopropanesulfonamide]
[1]; 10 μM, range class
  % inhibition: 0.0%
[1]
  inhibition (10 μM): −53.7%
[2]; [34]
  inhibition at 10 µM: 0%
[2]; read-out: inhibition (10 μM)
  inhibition at 10 µM: 2.1%
[3]; [34]
  inhibition at 10 µM: 0%
[3]; read-out: inhibition (10 μM)
  inhibition at 10 µM: -19.4%
[4]; [34]
  inhibition at 10 µM: 0%
[4]; read-out: inhibition (10 μM)
  inhibition at 10 µM: 19.4%
[5]; [34]
  inhibition at 10 µM: 0%
[5]; read-out: inhibition (10 μM)
  inhibition at 10 µM: -4.3%
[6]; [34]
  inhibition at 10 µM: 0%
[6]; read-out: inhibition (10 μM)
  inhibition at 10 µM: 10.6%
[7]; 10 μM, range class
  % inhibition: 0.0%
[7]
  inhibition (10 μM): 26.8%
[8]; 10 μM, range class
  % inhibition: 0.0%
[8]
  inhibition (10 μM): −2.0%
[9]; [34]
  inhibition at 10 µM: > 90%
[9]; read-out: inhibition (10 μM)
  inhibition at 10 µM: 95.2%
[10]; [34]
  inhibition at 10 µM: 50 to 75%
[10]; read-out: inhibition (10 μM)
  inhibition at 10 µM: 51.2%
[11]; [34]
  inhibition at 10 µM: 0%
[11]; read-out: inhibition (10 μM)
  inhibition at 10 µM: -19.8%
[12]; [34]
  inhibition at 10 µM: 75 to 90%
[12]; read-out: inhibition (10 μM)
  inhibition at 10 µM: 77.8%
[13]; 10 μM, range class
  % inhibition: 0.0%
[13]
  inhibition (10 μM): −18.4%
[14]; [34]
  inhibition at 10 µM: 0%
[14]; read-out: inhibition (10 μM)
  inhibition at 10 µM: 10.9%
[15]; [34]
  inhibition at 10 µM: 75 to 90%
[15]; read-out: inhibition (10 μM)
  inhibition at 10 µM: 86.7%
[16]; [34]
  inhibition at 10 µM: 0%
[16]; read-out: inhibition (10 μM)
  inhibition at 10 µM: 9.5%
[17]; [34]
  inhibition at 10 µM: 0%
[17]; read-out: inhibition (10 μM)
  inhibition at 10 µM: 27.5%
[18]; 10 μM, range class
  % inhibition: 0.0%
[18]
  inhibition (10 μM): 0.4%
[19]; [34]
  inhibition at 10 µM: 0%
[19]; read-out: inhibition (10 μM)
  inhibition at 10 µM: 0.1%
[20]; [34]
  inhibition at 10 µM: 0%
[20]; read-out: inhibition (10 μM)
  inhibition at 10 µM: -2.8%
[21]; [34]
  inhibition at 10 µM: 0%
[21]; read-out: inhibition (10 μM)
  inhibition at 10 µM: -9.9%
[22]
  inhibition (10 μM): 61.5%
[22]; [34]
  inhibition at 10 µM: 50 to 75%
[22]; read-out: inhibition (10 μM)
  inhibition at 10 µM: 67.9%
[23]; [34]
  inhibition at 10 µM: 0%
[23]; read-out: inhibition (10 μM)
  inhibition at 10 µM: 14.3%
[24]; [34]
  inhibition at 10 µM: 0%
[24]; read-out: inhibition (10 μM)
  inhibition at 10 µM: -32.5%
[25]; [34]
  inhibition at 10 µM: 0%
[25]; read-out: inhibition (10 μM)
  inhibition at 10 µM: -74.9%
[26]; [34]
  inhibition at 10 µM: 0%
[26]; read-out: inhibition (10 μM)
  inhibition at 10 µM: -15%
[27]; [34]
  inhibition at 10 µM: 0%
[27]; read-out: inhibition (10 μM)
  inhibition at 10 µM: -17.9%
[28]; [34]
  inhibition at 10 µM: 0%
[28]; read-out: inhibition (10 μM)
  inhibition at 10 µM: 1%
[29]; [34]
  inhibition at 10 µM: 0%
[29]; read-out: inhibition (10 μM)
  inhibition at 10 µM: -9.2%
[30]; [34]
  inhibition at 10 µM: 0%
[30]; read-out: inhibition (10 μM)
  inhibition at 10 µM: 1.8%
[31]; [34]
  inhibition at 10 µM: 0%
[31]; read-out: inhibition (10 μM)
  inhibition at 10 µM: 9%
[32]
  inhibition at 10 µM: 0%
[33]; [34]
  inhibition at 10 µM: 0%
[33]; read-out: inhibition (10 μM)
  inhibition at 10 µM: 14%
